From patent US9174991B2, “Crystalline form of pemetrexed disodium” (Azad Pharmaceutical Ingredients AG, priority 2009, dated 2015)
Where a name gives a salt, the structure may show the parent alone. Read-outs that look alike come from different tables or passages of the source.

Assays:
[1] = starting material, before storage
Description: HPLC analysis was done on an Agilent 1100 system equipped with DAD detector using a Zorbax SB-Phenyl column (150×4.6 mm, 3 μm). Measurements were done at 230 nm wavelengths at 25° C. using a flow of 1.0 mL/min and 8 min post-run time. As mobile phase water containing 0.03% TFA and acetonitrile containing 0.025% TFA were used, solvents were HPLC grade. Sample preparation: 10 mg sample in 25 mL water:ACN=1:1, 5 uL injection. Retention time Pemetrexed Disodium: 10.3 min.
PXRD: Routine PXRD measurements were carried out on a Bruker AXS D8Advance diffractometer equipped with CuKα source with CuKβ filter and a VANTEC detector (Ser. No.: 202964). Measurement parameters: 3° 2theta to 39.9° 2theta, step time: 2s, step size: 0.022°, T=25° C., X-ray generator: 35 kV/40 mA.

[2] = 70° C., 5 mbar; for change in HPLC-purity upon vacuum drying (in words): up to 9 d
Description: (§1) To investigate the stability of the different forms of Pemetrexed Disodium a stability test concerning storage at different relative humidity, storage in the presence of light and stability under drying conditions was carried out.
Four samples were stored at 70° 5 mbar in laboratory vacuum oven. IPC were taken after 2 d, 9 d
(§2) HPLC analysis was done on an Agilent 1100 system equipped with DAD detector using a Zorbax SB-Phenyl column (150×4.6 mm, 3 μm). Measurements were done at 230 nm wavelengths at 25° C. using a flow of 1.0 mL/min and 8 min post-run time. […] Sample preparation: 10 mg sample in 25 mL water:ACN=1:1, 5 uL injection.

[3] = for H2O (KFT) / HPLC-purity (10.5 min) / PXRD / HPLC-purity: dark, air
[4] = for change in HPLC purity in the presence of light (in words) / change in color in the presence of light (in words): text says after 16 d
Description: as §1
The samples were stored in double PE plastic bags and exposed to daylight IT=20° C. to 25° C. IPCs were taken after 15 d.
as §2

[5] = 5% to 12% relative humidity, 2 d, measured 11.7% (Form A 5.8%), 23° C.
[6] = 5% to 12% relative humidity, 5 d, measured 9.5% (Form A 5.3%), 24° C.
[7] = 5% to 12% relative humidity, 9 d, measured 9% (Form A 6%), 24° C.
[8] = 5% to 12% relative humidity, 16 d, measured 8.5% (Form A 5.8%), 24° C.
[9] = 27% to 33% relative humidity, 2 d, measured 29.8% (Form A 28%), 23° C.
[10] = 27% to 33% relative humidity, 5 d, measured 29% (Form A 27%), 24° C.
[11] = 27% to 33% relative humidity, 9 d, measured 31% (Form A 30%), 24° C.
[12] = 27% to 33% relative humidity, 16 d, measured 30.4% (Form A 28.7%), 24° C.
[13] = 39% to 50% relative humidity, 2 d, measured 41.1% (Form A 39%), 23° C.
[14] = 39% to 50% relative humidity, 5 d, measured 42.8% (Form A 38.6%), 24° C.
[15] = 39% to 50% relative humidity, 9 d, measured 48% (Form A 47%), 24° C.
[16] = 39% to 50% relative humidity, 16 d, measured 47.3% (Form A 46.4%), 24° C.
[17] = 60% to 70% relative humidity, 2 d, measured 61%, 22° C. (Form A 54%, 23° C)
[18] = 60% to 70% relative humidity, 5 d, measured 63% (Form A 57%), 24° C.
[19] = 60% to 70% relative humidity, 9 d, measured 69% (Form A 68%), 24° C.
[20] = 60% to 70% relative humidity, 16 d, measured 66.9% (Form A 67.2%), 24° C.
[21] = double PE plastic bags, daylight, 20° C. to 25° C., 15 d
[22] = daylight, listed as Pemetrexed Disodium Form A

SMILES: Nc1nc(O)c2c(CCc3ccc(C(=O)N[C@@H](CCC(=O)O)C(=O)O)cc3)c[nH]c2n1 [2.5 hydrate, disodium N-[4-[2-(2-amino-4,7-dihydro-4-oxo-3H-pyrrolo[2,3-d]-pyrimidin-5-yl)ethyl]benzoyl]-L-glutamic acid salt]
- HPLC-purity (10.5 min) [1]: 99.86%
- PXRD [1]: 2.5 hydrate
- HPLC-purity (10.5 min) ([2]; 2 d): 99.88%
- PXRD ([2]; 2 d): 2.5 hydrate
- HPLC-purity (10.5 min) ([2]; 9 d): 99.80%
- H2O (KFT) ([2]; 9 d, listed as Pemetrexed Disodium 2.5 hydrate): 7.9%
- change in HPLC-purity upon vacuum drying (in words) [2]: no significant change
- change in water content (in words) ([3]; 5% to 12% rel. humidity (for Form A and Form IV: 7% to 12%), up to 16 d, listed as Pemetrexed Disodium 2.5 hydrate): no significant change
- change in HPLC-purity (in words) ([3]; 5% to 12% rel. humidity (text for Form A: 7% to 12%), up to 16 d, listed as Pemetrexed Disodium 2.5 hydrate): no significant change
- H2O (KFT) [3, 5]: 8.9%
- HPLC-purity (10.5 min) [3, 5]: 99.74%
- PXRD [3, 5]: 2.5 hydrate
- HPLC-purity (10.5 min) [3, 6]: 99.82%
- PXRD [3, 6]: 2.5 hydrate
- HPLC-purity (10.5 min) [3, 7]: 99.90%
- PXRD [3, 7]: 2.5 hydrate
- HPLC-purity [3, 8]: 99.80%
- PXRD [3, 8]: 2.5 hydrate
- change in water content (in words) ([3]; 27% to 33% rel. humidity, up to 16 d, listed as Pemetrexed Disodium 2.5 hydrate): slight increase
- HPLC-purity [3, 9]: 99.82%
- PXRD [3, 9]: 2.5 hydrate
- HPLC-purity [3, 10]: 99.91%
- PXRD [3, 10]: 2.5 hydrate
- HPLC-purity [3, 11]: 99.84%
- PXRD ([3]; 27% to 33% relative humidity, 9 d, measured 31% (Form A 30%), 24° C., listed as Pemetrexed Disodium 2.5 hydrate): traces of Pemetrexed Disodium Heptahydrate
- HPLC-purity [3, 12]: 99.64%
- HPLC-purity [3, 13]: 99.83%
- PXRD ([3]; 39% to 50% relative humidity, 2 d, measured 41.1% (Form A 39%), 23° C., listed as Pemetrexed Disodium 2.5 hydrate): formation of Pemetrexed Disodium Heptahydrate
- HPLC-purity [3, 14]: 99.62%
- PXRD [3, 14]: Heptahydrate
- PXRD ([3]; 39% to 50% relative humidity, 5 d, measured 42.8% (Form A 38.6%), 24° C., listed as Pemetrexed Disodium 2.5 hydrate): transformation seems to be complete
- HPLC-purity [3, 15]: 99.74%
- PXRD [3, 15]: Heptahydrate
- HPLC-purity [3, 16]: 99.86%
- PXRD [3, 16]: Heptahydrate
- change in water content (in words) ([3]; 40% to 50% rel. humidity, up to 16 d, listed as Pemetrexed Disodium 2.5 hydrate): increase
- HPLC-purity [3, 17]: 99.73%
- PXRD [3, 17]: Heptahydrate
- PXRD ([3]; 60% to 70% relative humidity, 2 d, measured 61%, 22° C. (Form A 54%, 23° C), listed as Pemetrexed Disodium 2.5 hydrate): transformation to Pemetrexed Disodium Heptahydrate is complete
- HPLC-purity [3, 18]: 99.86%
- PXRD [3, 18]: Heptahydrate
- HPLC-purity [3, 19]: 99.84%
- PXRD [3, 19]: Heptahydrate
- HPLC-purity [3, 20]: 99.83%
- PXRD [3, 20]: Heptahydrate
- change in HPLC purity in any of the samples (in words) ([3]; all relative humidities tested (5% to 70%), up to 16 d): No significant change
- HPLC-purity ([4]; daylight study, Start): 99.73%
- change in HPLC purity in the presence of light (in words) ([4]; daylight): do not show significant changes
- change in color in the presence of light (in words) ([4]; daylight): do not show significant changes
- HPLC-purity [4, 21]: 99.74%

SMILES: Nc1nc(O)c2c(CCc3ccc(C(=O)N[C@@H](CCC(=O)O)C(=O)O)cc3)c[nH]c2n1 [Form A, disodium N-[4-[2-(2-amino-4,7-dihydro-4-oxo-3H-pyrrolo[2,3-d]-pyrimidin-5-yl)ethyl]benzoyl]-L-glutamic acid salt]
- HPLC-purity (10.5 min) [1]: 99.59%
- PXRD [1]: Form A
- HPLC-purity (10.5 min) ([2]; 2 d): 99.67%
- PXRD ([2]; 2 d): Form A
- Aspect ([2]; 9 d): beige
- HPLC-purity (10.5 min) ([2]; 9 d): 99.41%
- change in HPLC-purity upon vacuum drying (in words) ([2]; listed as Pemetrexed Disodium Form A): significant decrease
- change in water content (in words) ([3]; 5% to 12% rel. humidity (for Form A and Form IV: 7% to 12%), up to 16 d, listed as Pemetrexed Disodium Form A): does not show a significant change
- change in HPLC-purity (in words) ([3]; 5% to 12% rel. humidity (text for Form A: 7% to 12%), up to 16 d, listed as Pemetrexed Disodium Form A): does not show a significant change
- H2O (KFT) [3, 5]: 3.5%
- HPLC-purity (10.5 min) [3, 5]: 99.59%
- PXRD [3, 5]: Form A
- HPLC-purity (10.5 min) [3, 6]: 99.33%
- PXRD [3, 6]: Form A
- HPLC-purity (10.5 min) [3, 7]: 99.58%
- PXRD [3, 7]: Form A
- HPLC-purity [3, 8]: 99.50%
- PXRD [3, 8]: Form A
- change in HPLC-purity (in words) ([3]; 27% to 33% rel. humidity, after 16 d): without visible change
- change in water content (in words) ([3]; 27% to 33% rel. humidity, up to 16 d, listed as Pemetrexed Disodium Form A): significant in increase
- HPLC-purity [3, 9]: 99.60%
- HPLC-purity [3, 10]: 99.43%
- PXRD [3, 10]: Form A
- HPLC-purity [3, 11]: 99.57%
- PXRD [3, 11]: Form A
- HPLC-purity [3, 12]: 99.69%
- PXRD [3, 12]: Form A
- HPLC-purity [3, 13]: 99.68%
- PXRD [3, 13]: Form A
- HPLC-purity [3, 14]: 99.64%
- PXRD [3, 14]: Form A
- HPLC-purity [3, 15]: 99.62%
- PXRD [3, 15]: Form A
- HPLC-purity [3, 16]: 99.70%
- PXRD [3, 16]: Form A
- change in HPLC-purity (in words) ([3]; 40% to 50% rel. humidity, after 16 d): without visible change
- change in water content (in words) ([3]; 40% to 50% rel. humidity, up to 16 d, listed as Pemetrexed Disodium Form A): significant in increase
- uptake of water ([3]; 60% to 70% rel. humidity): 21%
- change in HPLC-purity (in words) ([3]; 60% to 70% rel. humidity, after 9 d): without significant change
- HPLC-purity [3, 17]: 99.71%
- PXRD [3, 17]: Form A
- HPLC-purity [3, 18]: 99.51%
- PXRD [3, 18]: Form A
- HPLC-purity [3, 19]: 99.71%
- PXRD [3, 19]: Heptahydrate
- PXRD ([3]; 60% to 70% relative humidity, 9 d, measured 69% (Form A 68%), 24° C., listed as Pemetrexed Disodium Form A): complete transformation to Pemetrexed Disodium Heptahydrate
- HPLC-purity [3, 20]: 99.72%
- PXRD [3, 20]: Heptahydrate
- HPLC-purity ([4]; daylight study, Start): 99.71%
- change in HPLC purity in the presence of light (in words) [4, 22]: a lot of decomposition products
- change in color in the presence of light (in words) [4, 22]: significant formation of color
- Aspect [4, 21]: beige
- H2O (KFT) [4, 21]: 2.44%
- HPLC-purity [4, 21]: 95.83%
